Literature values in patent US20100028426A1, “TIME-SPECIFIC DELAYED/PULSATILE RELEASE DOSAGE FORMS” (POLICHEM S.A., priority 2007, published 2010).

Assays:
[1] = in vivo

CCN(C(C)=O)c1cccc(-c2ccnc3c(C#N)cnn23)c1 [Zaleplon]
time to sleep onset (TSO) (sleep disorders; in vivo): effective in shortening the time to sleep onset | total sleep time and number of awakening (sleep disorders; oral immediate release formulation taken at bed time): neither increases total sleep time, nor decreases the number of awakening | time to peak concentration (t max) [1]: approximately 1 hour
